Source: patent US20150224190A1, “Combination of a phosphoinositide 3-kinase inhibitor and an inhibitor of the IL-8/CXCR interaction” (priority 2012, published 2015)

Experiments:
pAKT = test: Target inhibition after single doses: pAKT levels in breast cancer lines; type: cell-based, human; settings: up to 20 hours after treatment, MDA 468, MDA 231 LM2 and mouse 4T-1 breast cancer lines
Experimental: MDA231, lung metastatic subline MDA231 LM2 (Minn et al., 2005) and SUM159 human breast cancer cells, as well as the Balb/c tumor-derived mammary cancer lines 4T-1 and 168FARN (Aslakson and Miller, 1992), were propagated as previously described. All other cell lines were obtained from and were cultured according to the protocols of ATCC. For treatment with inhibitors, cells were synchronized without serum overnight and then supplemented with culture medium containing the inhibitor(s). For experiments with doxycycline-inducible shRNAs, 500 ng/ml of doxycycline (Sigma) was added to the medium and experiments performed 48 h later. Cell viability assays, cell cycle and cell death measurements were performed at 0.5% FCS in order to avoid masking effects of growth factors present under full-serum conditions.
(§1) Cells for Western Blotting and ELISA were lysed with RIPA buffer. […]
(§2) The present inventors applied single doses of COMPOUND A, a dual PI3K and mTOR inhibitor, and analyzed target inhibition and potential signaling pathway crosstalks after 2, 4, 8 and 20 h hours of treatment. […] While RAD001 readily activated JAK2 starting at 4 hours of treatment, they observed a later response with BKM120 treatment starting at 8 hours after adding the compound. […]

JAK2/STAT5 = JAK2/STAT5 phosphorylation in vivo models; set-up: species or system mice; settings: after 8 hours of treatment
Experimental: as §1
For assessing pJAK2 levels, an ELISA assay (Tyr1007/1008, Invitrogen) was applied because of cross-reactivity of all pJAK2 antibodies tested. Interleukin-8 levels in RIPA lysates, cell culture supernatants and mouse tail vein blood plasma were measured by ELISA, as well (Biolegend). […]
SCID/beige, SCID/NOD and Balb/c mice (Jackson Labs) were maintained under specific pathogen-free conditions and were used in compliance with protocols approved by the Institutional Animal Care and Use Committees of the FMI, which conform to institutional and national regulatory standards on experimental animal usage. […] Tumors were measured every 3 to 4 days with vernier calipers, and tumor volumes were calculated by the formula 0.5×(larger diameter)×(smaller diameter)^2. End point tumor sizes were analyzed for synergism using the formula AB/C<A/C×B/C, where C=tumor volume VHC, A=tumor volume compound 1, B=tumor volume compound 2, AB=tumor volume combination (Clarke, 1997). […]

pSTAT3 = pSTAT3 levels on treatment; type: cell-based; settings: BEZ235 treatment
Experimental: Cells for Western Blotting and ELISA were lysed with RIPA buffer. Xenograft lysates were prepared by lysing kryo-homogenized tumor powder in RIPA buffer (50 mM Tris-HCl pH 8, 150 mM NaCl, 1% NP-40, 0.5% sodium deoxycholate, 0.1% SDS. RIPA was supplemented with 1× protease inhibitor cocktail (Complete Mini, Roche), 0.2 mmol/L sodium-vanadate, 20 mM sodium fluoride and 1 mmol/L phenylmethylsulfonyl fluoride. For IRS-1 immunoprecipitation, cell lysates containing 500-1000 μg of protein were incubated with 1 μg of antibody and 20-50 μl of protein A-Sepharose beads (Zymed Laboratories, Inc., South San Francisco, Calif.) overnight at 4° C. Immunoprecipitates or whole cell lysates (30-80 μg) were subjected to SDS-PAGE, transferred to PVDF membranes (Immobilon-P, Millipore) and blocked for 1 hr at room temperature with 5% milk in PBS-0.1% Tween 20. […]
as §2

In the case of `Cn1c(=O)n(-c2ccc(C(C)(C)C#N)cc2)c2c3cc(-c4cnc5ccccc5c4)ccc3ncc21` [COMPOUND A, 2-methyl-2-[4-(3-methyl-2-oxo-8-quinolin-3-yl-2,3-dihydro-imidazo[4,5-c]quinolin-1-yl)-phenyl]-propionitrile], the pAKT levels (pAKT) is reported as “reduced”, the pJAK2 (JAK2/STAT5) is reported as “considerable upregulation” and the pSTAT5 (JAK2/STAT5) is reported as “considerable upregulation”. The “Levels of pSTAT3” value (pSTAT3) was “largely unaffected”.
